From patent publication US20250368614A1, “COMPOUNDS AND METHODS FOR YAP/TEAD MODULATION AND INDICATIONS THEREFOR” (OPNA BIO SA, priority 2023, published 2025)

System: TEAD-dependent transcription (12XGTIIC TEAD response element luciferase reporter) in MSTO-211H cells
Experiment: TEAD-dependent transcription cell-based luciferase reporter assay in MSTO-211H+12XGTIIC cells
Conditions: Homo sapiens; MSTO-211H+12XGTIIC reporter cells, 24 hours compound incubation, luminescence normalized to cell viability signal, geometric mean; read-out: MSTO-211H GMean IC50 (uM) Cell Assay Reporter Cell Variant: TEAD
Description: Determine Inhibitor Activity Against TEAD-Dependent Transcription in a Cell-Based Reporter Assay
The human mesothelioma cell line MSTO-211H was stably transfected with a pGL4.21 plasmid containing a synthetic promoter with 12 copies of the GTIIC TEAD response element that drives the expression of a luciferase reporter gene^1 using Lipofectamine transfection reagent (Thermo Fisher). Transfected cells were selected using puromycin and single cell clones expressing this construct (referred to as MSTO-211H+12XGTIIC) were generated by limiting dilution. MSTO-211H cells was characterized by genetic alterations in key components of the Hippo pathway^2, resulting in up-regulation of YAP/TEAD-mediated transcription. […] To evaluate TEAD inhibitors, the MSTO-211H+12XGTIIC cell line was seeded in a 96-well plate in 50 μL of culture media at 1×10^4 cells per well and incubated at 37° C. overnight. Serial dilutions of compounds (in total volume of 50 μL of culture media) were added to the cells and incubated at 37° C. for 24 hours. Each plate included cells treated with DMSO as high controls and cells treated with 20 μM of the reference compound K-975 (a known TEAD inhibitor^3) as low controls. Cell viability was assayed by the addition of 25 μL of CellTiter-Fluor reagent (Promega) followed by a 30-minute incubation at 37° C. and quantification of the fluorescence signal (Ex400/Em505). Subsequently, luciferase expression was assayed by the addition of 25 μL of ONE-Glo reagent (Promega) followed by a 10-minute incubation at room temperature and quantification of the luminescence signal. The luminescence signal was normalized to the fluorescence signal to correct for any loss in cell viability over the 24-hour compound incubation period. The percentage of inhibition of normalized luminescence signal, indicative of compound-mediated inhibition of TEAD-dependent transcription, at individual compound concentrations relative to high and low controls was calculated. The data were analyzed by using nonlinear regression to generate IC50 values for individual compounds.

Structure (SMILES)	IC50 [µM]
CN1CCN(CCCS(=O)(=O)N2CCc3c(cccc3Nc3ccc(C(F)(F)F)cc3)C2)CC1 [Compound O-0198, 2-((3-(4-methylpiperazin-1-yl)propyl)sulfonyl)-N-(4-(trifluoromethyl)phenyl)-1,2,3,4-tetrahydroisoquinolin-5-amine]	0.001 to 10
O=C(NC1CC1)N1CCC(C(=O)N2CCc3c(cccc3Nc3ccc(C(F)(F)F)nc3)C2)C1 (stereo not drawn) [Compound O-0096, N-cyclopropyl-3-(5-((6-(trifluoromethyl)pyridin-3-yl)amino)-1,2,3,4-tetrahydroisoquinoline-2-carbonyl)pyrrolidine-1-carboxamide]	0.001 to 10
O=C(Nc1ccccn1)N1CCC(C(=O)N2CCc3c(cccc3Nc3ccc(C(F)(F)F)nc3)C2)C1 (stereo not drawn) [Compound O-0097, N-(pyridin-2-yl)-3-(5-((6-(trifluoromethyl)pyridin-3-yl)amino)-1,2,3,4-tetrahydroisoquinoline-2-carbonyl)pyrrolidine-1-carboxamide]	0.001 to 10
CN(c1ccc(C(F)(F)F)cc1)c1cccc2c1CCN(C(=O)c1ccc(N)cc1)C2 [Compound O-0015, (4-aminophenyl)(5-(methyl(4-(trifluoromethyl)phenyl)amino)-3,4-dihydroisoquinolin-2(1H)-yl)methanone]	0.001 to 10
CN(c1ccc(C(F)(F)F)cc1)c1cccc2c1CCN(C(=O)c1cccc3[nH]ccc13)C2 [Compound O-0012, (1H-indol-4-yl)(5-(methyl(4-(trifluoromethyl)phenyl)amino)-3,4-dihydroisoquinolin-2(1H)-yl)methanone]	0.001 to 10
O=C(NC1CC1)N1CCC(C(=O)N2CCc3c(cccc3Nc3ccc(C(F)(F)F)cc3F)C2)C1 (stereo not drawn) [Compound O-0094, N-cyclopropyl-3-(5-((2-fluoro-4-(trifluoromethyl)phenyl)amino)-1,2,3,4-tetrahydroisoquinoline-2-carbonyl)pyrrolidine-1-carboxamide]	0.001 to 10
O=C(NC1CC1)N1CCC(C(=O)N2CCc3c(cccc3Nc3ccc(C(F)(F)F)c(F)c3)C2)C1 (stereo not drawn) [Compound O-0098, N-cyclopropyl-3-(5-((3-fluoro-4-(trifluoromethyl)phenyl)amino)-1,2,3,4-tetrahydroisoquinoline-2-carbonyl)pyrrolidine-1-carboxamide]	0.001 to 10
O=C(Cc1cn[nH]c1)N1CCc2c(cccc2Nc2ccc(C(F)(F)F)nc2)C1 [Compound O-0059, 2-(1H-pyrazol-4-yl)-1-(5-((6-(trifluoromethyl)pyridin-3-yl)amino)-3,4-dihydroisoquinolin-2(1H)-yl)ethan-1-one]	0.001 to 10
O=C(C1CS(=O)(=O)C1)N1CCc2cc(Nc3ccc(C(F)(F)F)cc3)ccc2C1 [Compound O-0207, (1,1-dioxidothietan-3-yl)(6-((4-(trifluoromethyl)phenyl)amino)-3,4-dihydroisoquinolin-2(1H)-yl)methanone]	0.001 to 10
O=C(Cc1cncs1)N1CCc2c(cccc2Nc2ccc(C(F)(F)F)cc2)C1 [Compound O-0003, 2-(thiazol-5-yl)-1-(5-((4-(trifluoromethyl)phenyl)amino)-3,4-dihydroisoquinolin-2(1H)-yl)ethan-1-one]	0.001 to 10
O=C(NCCC(=O)N1CCc2c(cccc2Nc2ccc(C(F)(F)F)cn2)C1)Nc1ccccn1 [Compound O-0186, 1-(3-oxo-3-(5-((5-(trifluoromethyl)pyridin-2-yl)amino)-3,4-dihydroisoquinolin-2(1H)-yl)propyl)-3-(pyridin-2-yl)urea]	0.001 to 10
O=C(c1cccc2cc[nH]c12)N1CCc2c(cccc2Nc2ccc(C(F)(F)F)nc2)C1 [Compound O-0060, (1H-indol-7-yl)(5-((6-(trifluoromethyl)pyridin-3-yl)amino)-3,4-dihydroisoquinolin-2(1H)-yl)methanone]	0.001 to 10
O=C(CCS(=O)(=O)C(F)(F)F)N1CCc2c(cccc2Nc2ccc(C(F)(F)F)nc2)C1 [Compound O-0020, 1-(5-((6-(trifluoromethyl)pyridin-3-yl)amino)-3,4-dihydroisoquinolin-2(1H)-yl)-3-((trifluoromethyl)sulfonyl)propan-1-one]	0.001 to 10
O=C(CCS(=O)(=O)C(F)(F)F)N1CCc2c(cccc2Nc2ccc(C(F)(F)F)cn2)C1 [Compound O-0021, 1-(5-((5-(trifluoromethyl)pyridin-2-yl)amino)-3,4-dihydroisoquinolin-2(1H)-yl)-3-((trifluoromethyl)sulfonyl)propan-1-one]	0.001 to 10
CS(=O)(=O)c1nccc(C(=O)N2CCc3c(cccc3Nc3ccc(C(F)(F)F)cc3)C2)n1 [Compound O-0040, (2-(methylsulfonyl)pyrimidin-4-yl)(5-((4-(trifluoromethyl)phenyl)amino)-3,4-dihydroisoquinolin-2(1H)-yl)methanone]	0.001 to 10
O=C(Cc1c[nH]cn1)N1CCc2c(cccc2Nc2ccc(C(F)(F)F)cc2)C1 [Compound O-0053, 2-(1H-imidazol-4-yl)-1-(5-((4-(trifluoromethyl)phenyl)amino)-3,4-dihydroisoquinolin-2(1H)-yl)ethan-1-one]	0.001 to 10
O=C1NC(=O)C(CC(=O)N2CCc3c(cccc3Nc3ccc(C(F)(F)F)c(F)c3)C2)N1 (stereo not drawn) [Compound O-0197, 5-(2-(5-((3-fluoro-4-(trifluoromethyl)phenyl)amino)-3,4-dihydroisoquinolin-2(1H)-yl)-2-oxoethyl)imidazolidine-2,4-dione]	0.001 to 10
CNS(=O)(=O)c1cccc(C(=O)N2CCc3c(cccc3Nc3ccc(C(F)(F)F)cc3)C2)c1 [Compound O-0200, N-methyl-3-(5-((4-(trifluoromethyl)phenyl)amino)-1,2,3,4-tetrahydroisoquinoline-2-carbonyl)benzenesulfonamide]	0.001 to 10
NC(=O)NCCC(=O)N1CCc2c(cccc2Nc2ccc(C(F)(F)F)nc2)C1 [Compound O-0189, 1-(3-oxo-3-(5-((6-(trifluoromethyl)pyridin-3-yl)amino)-3,4-dihydroisoquinolin-2(1H)-yl)propyl)urea]	0.001 to 10
Nc1nc(CC(=O)N2CCc3c(cccc3Nc3ccc(C(F)(F)F)cc3)C2)cs1 [Compound O-0007, 2-(2-aminothiazol-4-yl)-1-(5-((4-(trifluoromethyl)phenyl)amino)-3,4-dihydroisoquinolin-2(1H)-yl)ethan-1-one]	0.001 to 10
CN(c1ccc(C(F)(F)F)cc1)c1cccc2c1CCN(C(=O)Cc1cn[nH]c1)C2 [Compound O-0011, 1-(5-(methyl(4-(trifluoromethyl)phenyl)amino)-3,4-dihydroisoquinolin-2(1H)-yl)-2-(1H-pyrazol-4-yl)ethan-1-one]	0.001 to 10
C=CC(=O)Nc1ccnc(C(=O)N2CCc3c(cccc3Nc3ccc(C(F)(F)F)cc3)C2)c1 [Compound O-0036, N-(2-(5-((4-(trifluoromethyl)phenyl)amino)-1,2,3,4-tetrahydroisoquinoline-2-carbonyl)pyridin-4-yl)acrylamide]	0.001 to 10
Nc1cccc(C(=O)N2CCc3c(cccc3Nc3ccc(C(F)(F)F)cc3)C2)n1 [Compound O-0029, (6-aminopyridin-2-yl)(5-((4-(trifluoromethyl)phenyl)amino)-3,4-dihydroisoquinolin-2(1H)-yl)methanone]	10 to 100
O=C(NCCC(=O)N1CCc2c(cccc2Nc2ccc(C(F)(F)F)nc2)C1)Nc1ccccn1 [Compound O-0184, 1-(3-oxo-3-(5-((6-(trifluoromethyl)pyridin-3-yl)amino)-3,4-dihydroisoquinolin-2(1H)-yl)propyl)-3-(pyridin-2-yl)urea]	0.001 to 10
